In US9586953B2, “Prodrugs of amino quinazoline kinase inhibitor” (GlaxoSmithKline Intellectual Property Development Limited, priority 2012, dated 2017) one finds half-life data, which are given here for 2 molecules.

Data set [1] in a line: In vivo Assay (II): half life of the prodrug after oral administration in rat. The following applies: whole blood, rat (n=2), orally administered at a dose equivalent to 2 mg/kg of the parent ethanol compound, LC/MS, read-out: half life (T1/2). As for the experimental part:
(§1) 2-((4-(Benzo[d]thiazol-5-ylamino)-6-(tert-butylsulfonyl)quinazolin-7-yl)oxy)ethyl dihydrogen phosphate was orally administered at a dose equivalent to 2 mg/kg of 2-((4-(benzo[d]thiazol-5-ylamino)-6-(tert-butylsulfonyl)quinazolin-7-yl)oxy)ethanol to a series of test animals. Rats (n=2) and dogs (n=3) were administered 2-((4-(benzo[d]thiazol-5-ylamino)-6-(tert-butylsulfonyl)quinazolin-7-yl)oxy)ethyl dihydrogen phosphate, whereas minipigs (male Göttingen minipigs (n=3)) were administered 2-((4-(benzo[d]thiazol-5-ylamino)-6-(tert-butylsulfonyl)quinazolin-7-yl)oxy)ethyl disodium phosphate. Blood samples were taken from each test animal at intervals between 0 to 24 hrs (25 hrs in dog) after administration. The concentration 2-((4-(benzo[d]thiazol-5-ylamino)-6-(tert-butylsulfonyl)quinazolin-7-yl)oxy)ethanol in each sample was determined by LC/MS. The average blood concentrations of 2-((4-(benzo[d]thiazol-5-ylamino)-6-(tert-butylsulfonyl)quinazolin-7-yl)oxy)ethanol in each test species, following oral administration of 2-((4-(benzo[d]thiazol-5-ylamino)-6-(tert-butylsulfonyl)quinazolin-7-yl)oxy)ethyl dihydrogen phosphate or disodium phosphate are shown in FIG. 4.

The nature of data set [2]: In vivo Assay (II): half life of the prodrug after oral administration in dog. The following applies: whole blood, dog (n=3), orally administered at a dose equivalent to 2 mg/kg of the parent ethanol compound, LC/MS, read-out: half life (T1/2). As for the experimental part:
as §1

A short description of data set [3]: In vivo Assay (II): half life of the prodrug after oral administration in minipig. On the set-up: species or system male Göttingen minipigs. Particulars: male, Göttingen, whole blood, minipig (n=3), orally administered at a dose equivalent to 2 mg/kg of the parent ethanol compound, LC/MS, read-out: half life (T1/2). On the procedure: as §1

With `CC(C)(C)S(=O)(=O)c1cc2c(Nc3ccc4scnc4c3)ncnc2cc1OCCOP(=O)(O)O` [Example 1, 2-((4-(Benzo[d]thiazol-5-ylamino)-6-(tert-butylsulfonyl)quinazolin-7-yl)oxy)ethyl dihydrogen phosphate], the half-life in data set [1] turned out to be 15 min; in data set [2], 5 min.
Regarding `CC(C)(C)S(=O)(=O)c1cc2c(Nc3ccc4scnc4c3)ncnc2cc1OCCOP(=O)(O)O` [Example 2, 2-((4-(Benzo[d]thiazol-5-ylamino)-6-(tert-butylsulfonyl)quinazolin-7-yl)oxy)ethyl disodium phosphate], in data set [3], the half-life was 26 min.
